Values of other authors in US20100086495A1, “COMPOSITIONS AND METHODS FOR ENHANCING TRANSMUCOSAL DELIVERY” (DERMA-YOUNG LTD., priority 2007, published 2010).

Conditions: vitamin B12 deficient subjects

increase in serum concentration levels of the vitamin, sublingual versus conventional oral vitamin B12: same extent of increase
Substance: vitamin B12
